Entries after “also recorded” stand apart in the source; their conditions may differ.
Tests used:
Sprague Dawley male rats = assay: Mechanical hyperalgesia (von Frey) in CFA-induced inflammatory pain rat model; format: in vivo; conditions: for mechanical hyperalgesia in CFA-induced inflammatory pain: cumulative i.p. dosing, 3 days after CFA; for selectivity of antihyperalgesic effect in three-assay comparison: versus rate-suppressing and muscle-relaxant activity
Protocol: Raw data (paw withdrawal threshold, expressed in g of von Frey filament) was converted to a maximal possible effect value according the following equation: % MPE=[(test threshold(g)−control threshold(g)/(pre-CFA threshold−control threshold)]×100.
Complete Freund's adjuvant (CFA) contains Mycobacterium butyricum, inducing inflammation and an increase in paw thickness. 0.1 mL of CFA was injected in the right hind paw of Sprague Dawley male rats under isoflurane anaesthesia.
Mechanical hyperalgesia. Mechanical hyperalgesia was measured 3 days after CFA treatment. Rats (n=6) were placed in elevated boxes with a mesh floor. Von Frey filaments (expressed in g) were applied perpendicularly to the hindpaws, starting with the lowest filament (1.4 g) then increased until hindpaw withdrawal was observed. After each measurement, rats received the next dose of drug (every 20 min) until the maximum threshold (26 g) was observed. For the antagonist study, rats were pretreated with the benzodiazepine site antagonist flumazenil (10 min) and then received the next dose of drug (every 20 min) until the pre-CFA threshold was observed.
(§1) Drugs. The following drugs were used: HZ166, KRM-II-18B, and KRM-II-81, and were dissolved in a mixture containing 20% Dimethyl sulfoxide (DMSO), 10% Emulphor-620 (Rhodia Inc.), and 70% of 0.9% saline. Flumazenil (purchased from Cayman Chemical Company, MI) was dissolved in a mixture containing 10% ethanol, 40% propylene glycol, and 50% sterile water. Midazolam (Akorn, Inc.) was dissolved in 0.9% saline. Doses were expressed as the weight of the drug in milligrams per kilogram of body weight and drugs were administered intraperitoneally.

Rats = assay: Horizontal wire test; format: in vivo; conditions: three-assay comparison
Protocol: Horizontal wire test. Rats (n=10) were lifted by the tail and allowed to grasp a horizontally strung wire with their forepaws and released. The inability to complete this task (within 3 seconds) was recorded 20 minutes after each injection of drug.
as §1

[1] = Liver microsomal stability, mouse; format: in vitro ADME; conditions: for Mouse Liver microsome stability (reported in % remaining): 37° C., 4 μM compound, 30 minutes
Protocol: In vitro metabolism studies were done in mouse, rat, human, and dogs cells (TABLE 2).
In vitro liver microsomal studies were completed to measure the stability of the compounds against degradation in various species' liver microsomes.
Compound was incubated in hepatic microsomes over a 30-minute incubation period at 37° C. Incubations both with and without NADPH (2 mM) were performed in a 96-well plate format. The reaction was initiated with the addition of substrate and was terminated by protein precipitation. All incubations were performed using a final substrate concentration of 4 μM in 50 mM sodium phosphate buffer, pH 7.4. The final organic solvent content was 0.5% acetonitrile and 0.02% DMSO. The amount of enzyme present was fixed at 1.11 mg/mL protein irrespective of the species of microsomes used. Samples were analyzed by LC/MS-MS to determine the percent loss in the NAPDH incubations relative to the NADPH free incubations.

[2] = target: T1, α1, β3, γ2 GABA A receptor (Homo sapiens, UniProt P14867+P18507); assay: FLIPR functional assay, α1 GABAA receptor subtype in HEK-293 cells; format: cell-based
T1 construct: host or cells: HEK-293, stably transfected
T1 sequence (P14867 28-456): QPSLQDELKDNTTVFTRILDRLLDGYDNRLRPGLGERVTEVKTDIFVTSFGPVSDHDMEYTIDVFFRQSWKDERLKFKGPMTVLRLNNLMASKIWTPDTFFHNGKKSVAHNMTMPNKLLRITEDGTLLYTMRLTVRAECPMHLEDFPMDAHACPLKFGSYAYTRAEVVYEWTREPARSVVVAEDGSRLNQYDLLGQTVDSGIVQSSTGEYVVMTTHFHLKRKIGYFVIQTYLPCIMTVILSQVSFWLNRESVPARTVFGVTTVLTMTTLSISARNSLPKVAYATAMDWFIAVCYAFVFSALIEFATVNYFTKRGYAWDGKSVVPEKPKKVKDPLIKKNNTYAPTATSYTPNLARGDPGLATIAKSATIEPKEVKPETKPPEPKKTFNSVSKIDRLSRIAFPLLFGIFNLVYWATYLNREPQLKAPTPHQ
T1 sequence (P28472 26-473 partner): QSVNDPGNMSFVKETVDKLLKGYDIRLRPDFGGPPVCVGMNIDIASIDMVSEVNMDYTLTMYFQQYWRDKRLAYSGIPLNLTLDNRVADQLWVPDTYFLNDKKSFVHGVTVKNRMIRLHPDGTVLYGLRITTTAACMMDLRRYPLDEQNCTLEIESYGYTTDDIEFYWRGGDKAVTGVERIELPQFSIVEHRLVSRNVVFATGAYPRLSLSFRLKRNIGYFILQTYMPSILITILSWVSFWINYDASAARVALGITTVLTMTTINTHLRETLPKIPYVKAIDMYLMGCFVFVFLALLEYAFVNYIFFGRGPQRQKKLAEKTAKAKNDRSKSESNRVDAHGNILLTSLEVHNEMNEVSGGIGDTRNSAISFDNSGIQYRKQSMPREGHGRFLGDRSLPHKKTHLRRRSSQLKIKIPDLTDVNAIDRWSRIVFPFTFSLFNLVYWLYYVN
T1 sequence (P18507 40-475): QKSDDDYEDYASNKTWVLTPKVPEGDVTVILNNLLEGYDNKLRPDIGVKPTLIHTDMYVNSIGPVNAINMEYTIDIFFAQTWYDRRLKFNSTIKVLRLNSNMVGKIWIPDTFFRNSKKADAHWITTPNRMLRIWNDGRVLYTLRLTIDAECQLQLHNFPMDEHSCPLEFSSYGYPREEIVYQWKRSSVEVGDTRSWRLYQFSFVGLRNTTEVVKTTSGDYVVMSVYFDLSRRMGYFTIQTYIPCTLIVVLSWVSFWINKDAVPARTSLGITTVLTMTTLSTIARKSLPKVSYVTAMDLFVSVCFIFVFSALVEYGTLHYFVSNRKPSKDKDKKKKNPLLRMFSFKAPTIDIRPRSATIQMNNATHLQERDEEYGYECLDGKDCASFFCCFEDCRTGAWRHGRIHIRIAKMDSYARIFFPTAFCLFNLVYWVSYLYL
Description: The FLIPR functional assay is used to determine the EC50 at the α1 and α3 GABAA receptor subtypes. A high EC50 for the α1 subtype would indicate a low chance of adverse effects, including sedation, ataxia, and muscle relaxation. A low α3 EC50 would indicate potential effectiveness as an anxiolytic, antihyperalgesic, and likely an anticonvulsant. See, for example, Liu et al. (Assay. Drug. Dev. Technol. 2008, 6, 781-6) and Joesch et al. (J. Biomol. Screen. 2008, 13, 218-28).
Compounds tested were synthesized internally and solubilized in DMSO at a 10 mM concentration. GABA was purchase from Sigma (#A2129) and prepared at 100 mM in water.
HEK-293 cells were stably transfected with the α1, β3, γ2 GABA A receptor subunits (GenBank accession numbers NM_000806.3, NM_000814.5, and NM_198904.1, respectively) or α3, β3, γ2 (NM_000808 for α3) where obtained from ChanTest Co. (Catalog # CT6216 and CT6218, respectively).
Cells were cultivated in Dulbeco's Modified Eagle's Medium (DMEM, Sigma D5796) supplemented with 10% Fetal Bovine Serum (FBS, Gibco 16000), 0.5 mg/mL Geneticin (Gibco), 0.04 mg/mL Hygromycin B (Gibco), 0.1 mg/mL Zeocin (Gibco) and 20 mM HEPES (Sigma). Cells were grown at 37° C. in a humidified atmosphere of 5% CO2. In the experiments described here frozen cells were used. For this purpose, cells were gown and maintained under confluency during 2-3 weeks and then frozen down at different cell densities using Recovery™ Cell Culture Freezing Medium (Gibco).
18 hours prior to the experiment, cells were quickly thawed at 37° C. and seeded on Poly-D-Lys 384 plates (Corning 356663) at a density of 25,000 cells/well and in 25 μL of complete cell medium as described above.
Membrane potential changes induced by the flux of ions through the receptor were measured as relative fluorescence units (RFU) using the Fluorometric Imaging Plate Reader (FLIPR Tetra®, Molecular Devices) and the FLIPR Membrane Potential Blue Assay kit (Molecular Devices). Prior to the addition of the compounds the medium was removed and cells were loaded with 20 μL of dye prepared in assay buffer composed of Hank's Balanced Salt Solution (HBSS with Ca^+2 and Mg^+2; Gibco 14025) with 20 mM Hepes. After 1 hour of incubation at room temperature (RT), the plate was placed into the FLIPR instrument and experiments were run adding first 10 μL from the 1st addition plate (compound plate) and after a 3 minutes incubation adding 20 μL of the 2nd addition or agonist plate. The response to this last GABA addition was monitored for another 3 minutes. […]
Data Analysis. The difference between the maximum and the minimum (Max-Min) fluorescence reached during the first addition or read interval and the second read interval were used for data analysis (agonist and potentiation, respectively). […]

| SMILES | mechanical hyperalgesia in CFA-induced inflammatory pain (Sprague Dawley male rats) | selectivity of antihyperalgesic effect in three-assay comparison (Sprague Dawley male rats) | muscle-relaxant activity, doses relative to antihyperalgesic doses (Rats) | Mouse Liver microsome stability (reported in % remaining) [1] [% remaining] | EC50 [2] [µM] | Mouse % Metabolized ([1]; in vitro metabolism, mouse) [%] |
| --- | --- | --- | --- | --- | --- | --- |
| C#Cc1ccc2c(c1)C(c1ccccc1F)=NCc1c(-c3cnco3)ncn1-2 [KRM-II-18B, 5-(8-Ethynyl-6-(2-fluorophenyl)-4H-benzo[f]imidazo[1,5-a][1,4]diazepin-3-yl)oxazole] | much more active against hyperalgesia; also recorded: dose-dependently attenuated mechanical hyperalgesia | selectively produce antihyperalgesic effect | much larger doses | 79 | > 20 |  |
| C#Cc1ccc2c(c1)C(c1ccccn1)=NCc1c(-c3cnco3)ncn1-2 [KRM-II-81, 5-(8-Ethynyl-6-(pyridin-2-yl)-4H-benzo[f]imidazo[1,5-a][1,4]diazepin-3-yl)oxazole] | much more active against hyperalgesia; also recorded: dose-dependently attenuated mechanical hyperalgesia | selectively produce antihyperalgesic effect | much larger doses | 90 | > 20 | 10.1 |

Reference: patent publication US10259815B2, “Gabaergic ligands and their uses” (UWM Research Foundation, Inc., priority 2015, dated 2019)
